Eleven compounds from the Kinase Knowledgebase extract (Sharma et al. 2016) can be followed below.

For this assay, the target named is EGFR (human) (UniProt P00533). Particulars: a431.
Chain of EGFR (human) (P00533 whole entry, looked up): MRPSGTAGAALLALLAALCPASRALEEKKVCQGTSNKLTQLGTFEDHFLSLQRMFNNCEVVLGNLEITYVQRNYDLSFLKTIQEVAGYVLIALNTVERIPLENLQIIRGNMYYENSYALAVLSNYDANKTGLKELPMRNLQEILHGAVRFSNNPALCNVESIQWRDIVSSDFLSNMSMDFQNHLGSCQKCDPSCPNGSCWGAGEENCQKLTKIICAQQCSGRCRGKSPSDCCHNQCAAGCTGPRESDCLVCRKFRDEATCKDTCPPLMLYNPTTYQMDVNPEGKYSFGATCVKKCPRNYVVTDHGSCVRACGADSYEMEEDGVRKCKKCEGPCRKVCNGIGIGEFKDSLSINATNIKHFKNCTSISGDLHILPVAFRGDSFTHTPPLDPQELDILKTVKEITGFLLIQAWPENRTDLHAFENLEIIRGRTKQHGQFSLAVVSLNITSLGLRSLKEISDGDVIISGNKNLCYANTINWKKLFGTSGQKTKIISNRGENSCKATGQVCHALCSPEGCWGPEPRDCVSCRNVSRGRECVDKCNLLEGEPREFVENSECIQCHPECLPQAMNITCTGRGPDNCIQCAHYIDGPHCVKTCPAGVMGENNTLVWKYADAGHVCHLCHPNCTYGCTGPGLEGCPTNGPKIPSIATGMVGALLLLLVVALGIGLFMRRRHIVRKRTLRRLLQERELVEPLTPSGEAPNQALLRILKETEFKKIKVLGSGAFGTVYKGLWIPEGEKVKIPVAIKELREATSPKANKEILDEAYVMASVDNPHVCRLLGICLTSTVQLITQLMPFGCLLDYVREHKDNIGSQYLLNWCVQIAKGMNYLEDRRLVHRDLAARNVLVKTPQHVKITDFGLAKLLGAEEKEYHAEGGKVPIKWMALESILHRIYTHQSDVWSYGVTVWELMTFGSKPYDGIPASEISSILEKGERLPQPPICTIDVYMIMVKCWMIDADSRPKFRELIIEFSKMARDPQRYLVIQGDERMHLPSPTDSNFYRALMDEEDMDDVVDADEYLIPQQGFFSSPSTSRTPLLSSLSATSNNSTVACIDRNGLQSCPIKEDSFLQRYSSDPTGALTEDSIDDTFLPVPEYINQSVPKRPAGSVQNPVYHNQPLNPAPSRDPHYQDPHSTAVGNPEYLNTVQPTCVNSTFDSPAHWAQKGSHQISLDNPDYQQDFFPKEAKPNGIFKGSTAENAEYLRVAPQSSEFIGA
In the case of `Nc1nc(Nc2cccc(Br)c2)c2ccn(Cc3cccc4ccccc34)c2n1`, the IC50 – broadly, the midpoint of a concentration-inhibition curve – turned out to be 36.3 µM.

On to `Nc1nc(Nc2cccc(Br)c2)c2ccn(Cc3ccc4ccccc4c3)c2n1`, for which the IC50 is 20.4 µM.

For `Nc1nc(Nc2cccc(Br)c2)c2ccn(Cc3ccccc3)c2n1`, the IC50 turned out to be 50.4 µM.

As for `Cc1ccccc1Cn1ccc2c(Nc3cccc(Br)c3)nc(N)nc21`, the IC50 was found to be 15.7 µM.

The compound `Nc1nc(Nc2cccc(Br)c2)c2ccn(Cc3ccc(Cl)cc3Cl)c2n1` displayed a concentration for half-maximal inhibition (IC50) of 15.3 µM.

`COc1cc(Cn2ccc3c(Nc4cccc(Br)c4)nc(N)nc32)cc(OC)c1OC` returned an IC50 of 39 µM.

As for `Nc1nc(Nc2cccc(Br)c2)c2ccn(Cc3ccc(Cl)cc3)c2n1`, the IC50 worked out at 16.1 µM.

As to `Nc1nc(Nc2cccc(Br)c2)c2ccn(Cc3ccc(Cl)c(Cl)c3)c2n1`, the IC50 is 19.2 µM.

`Nc1nc(Nc2cccc(Br)c2)c2ccn(Cc3ccc(-c4ccccc4)cc3)c2n1` showed an IC50 of 13.3 µM.

The compound `COc1ccc(OC)c(Cn2ccc3c(Nc4cccc(Br)c4)nc(N)nc32)c1` registered an IC50 of 40.6 µM.

`Nc1nc(Nc2cccc(Br)c2)c2ccn(Cc3ccccc3Cl)c2n1` registered an IC50 of 88.4 µM.
